Reference: PMC9601805, “Characterization of the Escherichia coli pyridoxal 5′‐phosphate homeostasis protein (YggS): Role of lysine residues in PLP binding and protein stability” (Protein Science : A Publication of the Protein Society, 2022)
Where “and” joins values, the source holds several entries; their conditions need not be identical. Identical values can stand only once. Like-named read-outs stand apart in the source and are kept apart here.

B1: Escherichia coli pyridoxal 5'-phosphate homeostasis protein (YggS), wild type, holo-form (natural protein, E. coli, UniProt P67080 1-234, looked up)
chain: MNDIAHNLAQVRDKISAAATRCGRSPEEITLLAVSKTKPASAIAEAIDAGQRQFGENYVQEGVDKIRHFQELGVTGLEWHFIGPLQSNKSRLVAEHFDWCHTIDRLRIATRLNDQRPAELPPLNVLIQINISDENSKSGIQLAELDELAAAVAELPRLRLRGLMAIPAPESEYVRQFEVARQMAVAFAGLKTRYPHIDTLSLGMSDDMEAAIAAGSTMVRIGTAIFGARDYSKK
modifications: PLP covalently bound to Lys36 through a Schiff base linkage
notes: YggS (PLP homeostasis protein, PLPHP) of E. coli; K233 and K234 are the last two residues; Two wild-type constructs were made in pET28b(+): His-tag at the C-terminal end (NcoI/XhoI, pET28yggS) and His-tag at the N-terminal end (NdeI/EcoRI); Samples from the standard purification held about 70-80% PLP per monomer; also called holo-YggS; YggS-PLP; source: E. coli HMS174(DE3), purified (ammonium …)

What was measured:
apo‐YggS [1] = biological target: T1, apo‐YggS (Escherichia coli, UniProt P67080); assay: Kinetics of PLP binding to apo-YggS, absorbance of protonated Schiff base; conditions: manual mixing time
T1 construct: made in house; host or cells: E. coli HMS174(DE3)
Procedure: (§1) Equilibrium binding analyses were carried out by measuring the decrease of protein intrinsic fluorescence observed upon the addition of increasing PLP concentrations to a fixed concentration of apo‐YggS (Figure 1b).
We set up a novel in vitro discontinuous assay in which PLP transfer from holo‐YggS to the apo‐form of eSHMT could be followed (see Section 4 for details). In this assay, the increase in SHMT activity is measured as PLP dissociates from holo‐YggS and binds to apo‐SHMT, forming the catalytically active holo‐SHMT. […] The binding kinetics of free PLP to either apo‐YggS or apo‐SHMT was measured by manually mixing 20 μM free PLP with 20 μM of protein, observing the formation of the internal aldimine at 420 nm.

apo‐YggS [2] = biological target: T1, apo‐YggS; assay: biochemical; type: binding
Procedure: The thermal stability of holo‐ and apo‐YggS forms was analyzed by differential scanning fluorimetry (DSF).
Differential scanning fluorimetry (DSF) assays were performed on a Real Time PCR Instrument (CFX Connect Real Time PCR system, Bio‐Rad, Hercules, CA). In a typical experiment, 2 μM WT and variant apo‐YggS forms in 50 mM NaHEPES, pH 7.5, 50 mM NaCl, and Sypro Orange (5x, Thermo Scientific) were mixed with various ligands (total volume of 25 μl) in a 96‐well PCR plate. […] All samples were run in triplicate. Denaturation profiles were analyzed as described in Nardella et al.[40]

apo‐YggS [3] = biological target: T1, apo‐YggS; assay: biochemical; type: binding; remark: listed apart in the source
Procedure: as §1
Dissociation constants were calculated from saturation curves obtained measuring the protein fluorescence emission intensity as a function of increasing PLP concentration. […] Fluorescence emission spectra were recorded from 310 to 450 nm upon excitation at 280 nm. Excitation and emission slits were set at 3 and 5 nm, respectively.

eSHMT = eSHMT (Escherichia coli, UniProt P0A825); assay: PLP binding to eSHMT; conditions: read-out: K D for PLP
[4] = biological target: T2, E. coli serine hydroxymethyltransferase, apo-form (E. coli, UniProt P0A825 1-417); assay: SPR; SensiQ Pioneer, COOH5 chip; apo-SHMT immobilised via amine coupling (100 RU); holo-YggS injected at 0.24-180 μM in PBS with 0.005% surfactant P20, 30 μl/min; done twice; Scatchard analysis; conditions: both partners purified
T2 construct: serine hydroxymethyltransferase of E. coli, encoded by the glyA gene; without PLP (apo-form); also called apo-SHMT; apoSHMT; source: apo-form prepared with L-cysteine as for apo-YggS
T2 sequence (looked up): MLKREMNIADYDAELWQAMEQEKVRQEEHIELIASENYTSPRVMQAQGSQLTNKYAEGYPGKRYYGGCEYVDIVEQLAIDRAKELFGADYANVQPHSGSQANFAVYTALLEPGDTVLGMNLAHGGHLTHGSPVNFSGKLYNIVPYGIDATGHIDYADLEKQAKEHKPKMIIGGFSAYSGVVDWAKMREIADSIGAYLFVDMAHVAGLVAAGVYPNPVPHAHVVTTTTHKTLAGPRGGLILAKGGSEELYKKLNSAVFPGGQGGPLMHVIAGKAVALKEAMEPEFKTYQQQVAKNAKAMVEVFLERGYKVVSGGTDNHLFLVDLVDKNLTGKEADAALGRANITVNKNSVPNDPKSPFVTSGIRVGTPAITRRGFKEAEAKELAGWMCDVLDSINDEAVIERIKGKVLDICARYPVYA

Row | Molecule | time to reach PLP binding equilibrium (apo‐YggS [1]) | Kd (apo‐YggS [2]) | Kd (apo‐YggS [3]; dissociation constant (K D), ligand binding to WT apo-YggS, fluorescence change, 50 mM NaHEPES pH 7.6) | stoichiometry ratio of PLP binding (apo‐YggS [3]; titration with 1 μM apo-YggS) | Kd (eSHMT) | Kd [4]
1 | Cc1ncc(COP(=O)(O)O)c(C=O)c1O [PLP, pyridoxal 5′‐phosphate] | ≤ 3 s | ~50000 nM | 1.3 nM and ~1 nM | one | ~5 nM | –
2 | B1 | – | – | – | – | – | 4800 ± 800 nM
